# In patent publication US8575161B2, “Benzofurane, benzothiophene, benzothiazol derivatives as FXR modulators” (Merck Patent GmbH, priority 2008, dated 2013):
# Molecular target: T1, human Farsenoid X Receptor ligand binding domain - GST fusion protein (GST-FXR LBD) (Homo sapiens, UniProt Q96RI1)
# T1 construct: Human FXR-LBD (amino acid 248-476); made in house; host or cells: E. coli BL21
# T1 sequence (Q96RI1 248-476 isoform Q96RI1-1): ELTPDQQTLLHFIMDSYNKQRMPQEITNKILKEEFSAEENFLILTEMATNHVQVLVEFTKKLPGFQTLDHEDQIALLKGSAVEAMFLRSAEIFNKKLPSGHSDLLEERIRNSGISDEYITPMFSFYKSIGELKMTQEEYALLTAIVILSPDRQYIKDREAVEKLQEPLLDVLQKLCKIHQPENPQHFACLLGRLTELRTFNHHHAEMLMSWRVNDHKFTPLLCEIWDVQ
# Assay: FXR-SRC-1 Cofactor Recruitment Assay (time-resolved fluorescence energy transfer)
# Format: biochemical
# Conditions: SRC-1 peptide recruitment, 1 hour at room temperature
# From the text: BIOLOGICAL EXPERIMENTS FXR-SRC-1 Cofactor Recruitment Assay
# GST-LBD is labelled with a europium chelate (donor) via a europium-tagged anti-GST antibody, and the co-activator peptide is labelled with allophycocyanin-APC (acceptor) via a streptavidin-biotin linkage.
# In the presence of an agonist for the nuclear receptor, the peptide is recruited to the GST-LBD, bringing europium and allophycocyanin into close proximity to enable energy transfer from the europium chelate to the allophycocyanin. Upon excitation of the complex with light at 340 nm, excitation energy absorbed by the europium chelate is transmitted to the allophycocyanin moiety resulting in emission at 665 nm. […] The activity of a nuclear receptor agonist can be measured by determining the ability of a compound to bind the nuclear receptor in this test (EC50) and compare to the ability of reference compound to bind this same nuclear receptor. […]
# A mix without peptide (same than peptide mix were peptide was replaced by water) was also set-up and for each compound (each concentration tested) a basal fluorescence level was determined in order to detect self-fluorescent compounds. […]
# Plates were incubated 1 hour at room temperature and fluorescence was read on a time resolved mode on a Wallac/Perkin Elmer Victor2 counter.
# For each compound concentration, fluorescent signal ratio: F665/F615×1000 was calculated. […]
structure (smiles),measurement,value
"O=C(O)c1cc2c(Br)c(N3CCC(N(C(=O)C4CC4)c4ccc(Cl)cc4Cl)CC3)ccc2o1 [Example 165, 4-Bromo-5-{4-[cyclopropanecarbonyl-(2,4-dichloro-phenyl)-amino]-piperidin-1-yl}-benzofuran-2-carboxylic acid]",EC50,106 nM
